# Calls of active or inactive are those of the source.
# Experiments:
# [1] = target: Mitogen-activated protein kinase 10 (Homo sapiens, UniProt P53779); test: Dose response biochemical screening assay for inhibitors of c-Jun N-Terminal Kinase 3 (JNK3). [Related pubchem assays: 746 ]
# [2] = target: Nonstructural protein 1 (Influenza A virus, UniProt Q194T2); format: functional, Influenza A virus (A/California/07/2009(H1N1))
# [3] = target: T1, Histone-lysine N-methyltransferase NSD2 (Homo sapiens, UniProt O96028); format: biochemical
# T1 sequence (O96028 whole entry): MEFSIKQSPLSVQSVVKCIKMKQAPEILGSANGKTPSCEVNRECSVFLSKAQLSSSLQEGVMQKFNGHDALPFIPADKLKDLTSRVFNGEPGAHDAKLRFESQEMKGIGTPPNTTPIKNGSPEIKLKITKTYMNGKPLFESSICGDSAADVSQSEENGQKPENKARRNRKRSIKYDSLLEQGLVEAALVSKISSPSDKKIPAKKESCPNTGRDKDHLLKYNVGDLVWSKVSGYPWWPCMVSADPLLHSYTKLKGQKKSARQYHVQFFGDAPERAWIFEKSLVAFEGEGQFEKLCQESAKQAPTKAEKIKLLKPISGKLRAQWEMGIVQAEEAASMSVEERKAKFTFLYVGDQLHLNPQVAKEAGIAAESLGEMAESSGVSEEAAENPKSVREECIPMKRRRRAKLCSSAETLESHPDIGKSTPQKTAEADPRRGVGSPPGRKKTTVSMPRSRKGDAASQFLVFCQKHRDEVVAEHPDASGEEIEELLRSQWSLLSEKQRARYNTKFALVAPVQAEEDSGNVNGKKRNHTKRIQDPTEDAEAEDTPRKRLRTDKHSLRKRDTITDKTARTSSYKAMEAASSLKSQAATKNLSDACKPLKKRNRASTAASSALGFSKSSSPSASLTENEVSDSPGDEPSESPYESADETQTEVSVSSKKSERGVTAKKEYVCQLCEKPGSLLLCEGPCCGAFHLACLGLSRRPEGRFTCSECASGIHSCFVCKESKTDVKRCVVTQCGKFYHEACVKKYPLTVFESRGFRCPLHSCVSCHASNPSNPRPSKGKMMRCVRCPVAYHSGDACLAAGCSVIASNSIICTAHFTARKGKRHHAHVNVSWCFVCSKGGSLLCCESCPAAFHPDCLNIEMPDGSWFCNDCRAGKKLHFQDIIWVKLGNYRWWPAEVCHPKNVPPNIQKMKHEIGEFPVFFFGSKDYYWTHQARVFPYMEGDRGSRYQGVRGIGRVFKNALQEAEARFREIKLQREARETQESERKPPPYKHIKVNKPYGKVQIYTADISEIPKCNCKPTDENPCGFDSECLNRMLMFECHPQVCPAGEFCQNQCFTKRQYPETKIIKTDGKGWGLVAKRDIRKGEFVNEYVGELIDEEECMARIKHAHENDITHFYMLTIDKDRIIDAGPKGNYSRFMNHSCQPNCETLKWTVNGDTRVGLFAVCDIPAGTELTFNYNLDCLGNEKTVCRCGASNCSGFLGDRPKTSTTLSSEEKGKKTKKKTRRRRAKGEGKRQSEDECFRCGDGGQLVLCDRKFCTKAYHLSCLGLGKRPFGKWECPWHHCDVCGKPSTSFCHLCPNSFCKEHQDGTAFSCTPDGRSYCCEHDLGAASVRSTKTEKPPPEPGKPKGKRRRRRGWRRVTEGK
# [4] = target: NS3 (Hepatitis C virus, UniProt A3EZJ3); test: PubChem AID 2173; parameters: species or system Hepacivirus hominis
# [5] = target: T2, Short transient receptor potential channel 4 (Mus musculus, UniProt Q9QUQ5); test: mouse TRPC4 channel inhibitors, dose response, cell-based, HEK293 TRPC4/mu-opioid, Fluo-4 calcium (AID 434942); format: functional;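 further: potency of inhibitors blocking the TRPC4 calcium response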
# T2 sequence (Q9QUQ5 whole entry): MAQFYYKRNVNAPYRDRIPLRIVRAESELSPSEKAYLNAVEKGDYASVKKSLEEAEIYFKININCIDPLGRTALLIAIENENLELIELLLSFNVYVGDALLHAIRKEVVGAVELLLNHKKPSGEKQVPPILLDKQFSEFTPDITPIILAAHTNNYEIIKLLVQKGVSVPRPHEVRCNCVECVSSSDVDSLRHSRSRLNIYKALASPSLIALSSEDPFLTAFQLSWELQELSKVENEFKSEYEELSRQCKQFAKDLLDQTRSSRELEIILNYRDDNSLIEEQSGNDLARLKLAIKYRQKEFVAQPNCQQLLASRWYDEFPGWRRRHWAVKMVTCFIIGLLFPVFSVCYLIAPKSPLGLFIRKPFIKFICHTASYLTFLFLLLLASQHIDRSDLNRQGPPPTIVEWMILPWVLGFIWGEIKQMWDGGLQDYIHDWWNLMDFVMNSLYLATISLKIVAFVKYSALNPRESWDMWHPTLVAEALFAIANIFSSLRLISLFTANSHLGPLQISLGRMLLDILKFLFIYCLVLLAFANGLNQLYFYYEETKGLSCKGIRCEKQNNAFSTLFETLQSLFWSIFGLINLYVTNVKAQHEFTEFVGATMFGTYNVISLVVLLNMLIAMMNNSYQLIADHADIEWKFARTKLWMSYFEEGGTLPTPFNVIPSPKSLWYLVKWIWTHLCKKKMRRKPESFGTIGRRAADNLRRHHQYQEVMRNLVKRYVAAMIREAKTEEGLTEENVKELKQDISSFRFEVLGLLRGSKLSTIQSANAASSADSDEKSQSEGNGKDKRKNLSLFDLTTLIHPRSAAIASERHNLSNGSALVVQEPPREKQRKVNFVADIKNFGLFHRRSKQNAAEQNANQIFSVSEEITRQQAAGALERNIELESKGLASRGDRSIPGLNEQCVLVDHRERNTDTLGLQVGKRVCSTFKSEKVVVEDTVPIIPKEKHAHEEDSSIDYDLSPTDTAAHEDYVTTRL
# [6] = growth suppression of PTEN-null colon cells, dose response, cell-based, HCT116 PTEN knockout (AID 1047); format: functional;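 further: HCT116 colon tumor cells with PTEN knocked out; cells exposed to compound for 60 hours before readout; potency for loss of cell viability measured by luminescence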
# [7] = growth suppression of beta-catenin-knockout colon cells, dose response, cell-based, HCT116, human colon tumor (AID 1045); format: functional;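 further: HCT116 colon tumor cells with beta catenin knocked out; cells exposed to compound for 60 hours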
# [8] = target: T3, Replicative DNA helicase DnaB (Mycobacterium tuberculosis, UniProt P9WMR3); test: DnaB intein splicing inhibitors, dose response, biochemical, cell-free fluorescence (AID 449749); format: functional
# T3 sequence (P9WMR3 whole entry): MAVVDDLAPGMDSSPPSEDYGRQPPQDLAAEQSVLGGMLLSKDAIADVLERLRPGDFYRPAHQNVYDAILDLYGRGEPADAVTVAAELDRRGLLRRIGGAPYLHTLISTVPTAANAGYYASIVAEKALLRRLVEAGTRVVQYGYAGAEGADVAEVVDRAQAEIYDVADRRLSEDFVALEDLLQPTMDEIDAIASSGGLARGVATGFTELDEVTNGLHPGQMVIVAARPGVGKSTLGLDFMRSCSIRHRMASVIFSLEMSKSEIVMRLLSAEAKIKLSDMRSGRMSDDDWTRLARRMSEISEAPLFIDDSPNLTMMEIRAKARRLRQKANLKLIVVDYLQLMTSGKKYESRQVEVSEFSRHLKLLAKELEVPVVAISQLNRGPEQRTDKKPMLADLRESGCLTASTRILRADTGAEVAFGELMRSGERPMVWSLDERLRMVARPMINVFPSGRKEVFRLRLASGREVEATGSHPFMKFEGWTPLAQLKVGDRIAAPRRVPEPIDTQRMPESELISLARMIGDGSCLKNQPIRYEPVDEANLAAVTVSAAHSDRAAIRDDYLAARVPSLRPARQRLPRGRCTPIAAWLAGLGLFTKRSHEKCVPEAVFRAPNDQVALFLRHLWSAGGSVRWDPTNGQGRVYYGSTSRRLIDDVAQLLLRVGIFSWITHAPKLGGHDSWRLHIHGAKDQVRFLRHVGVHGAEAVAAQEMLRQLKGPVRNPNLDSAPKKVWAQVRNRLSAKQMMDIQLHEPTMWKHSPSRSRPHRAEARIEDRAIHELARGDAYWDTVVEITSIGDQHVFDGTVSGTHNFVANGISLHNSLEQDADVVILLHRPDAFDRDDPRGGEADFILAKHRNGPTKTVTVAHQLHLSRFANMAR
# [9] = target: T4, Protein RecA (Mycobacterium tuberculosis, UniProt P9WHJ3); test: Fluorescence Cell-Free Homogeneous Dose Retest to Identify Inhibitors of RecA-Intein Splicing Activity. [Related pubchem assays (depositor defined):AID2097, AID2223, AID489010, AID492950]; format: functional
# T4 sequence (P9WHJ3 whole entry): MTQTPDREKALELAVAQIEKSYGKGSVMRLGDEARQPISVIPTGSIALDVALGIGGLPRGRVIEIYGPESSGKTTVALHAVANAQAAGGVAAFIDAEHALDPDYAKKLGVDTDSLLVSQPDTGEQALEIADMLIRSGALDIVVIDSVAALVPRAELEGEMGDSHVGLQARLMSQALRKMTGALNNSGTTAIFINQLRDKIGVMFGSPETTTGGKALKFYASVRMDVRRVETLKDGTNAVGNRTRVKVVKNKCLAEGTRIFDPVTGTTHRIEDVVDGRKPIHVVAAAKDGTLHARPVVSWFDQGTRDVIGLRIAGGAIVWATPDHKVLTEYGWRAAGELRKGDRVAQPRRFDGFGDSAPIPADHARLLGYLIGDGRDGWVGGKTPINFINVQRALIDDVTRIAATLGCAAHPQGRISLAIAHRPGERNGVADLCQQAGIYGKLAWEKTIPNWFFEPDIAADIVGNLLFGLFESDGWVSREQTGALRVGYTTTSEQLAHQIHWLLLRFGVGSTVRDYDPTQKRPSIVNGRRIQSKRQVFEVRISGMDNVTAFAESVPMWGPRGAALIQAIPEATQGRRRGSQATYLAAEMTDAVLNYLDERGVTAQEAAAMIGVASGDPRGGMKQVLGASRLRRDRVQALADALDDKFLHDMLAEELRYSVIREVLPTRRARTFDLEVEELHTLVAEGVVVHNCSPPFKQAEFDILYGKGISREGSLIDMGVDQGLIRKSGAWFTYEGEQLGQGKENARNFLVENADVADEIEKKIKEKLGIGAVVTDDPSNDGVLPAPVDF
# [10] = THP-1 cell cytotoxicity, dose response, cytotoxicity control for Vif-APOBEC3G degradation inhibitor project, THP-1 cells (AID 1117359); format: functional; conditions: Human immunodeficiency virus 1, THP-1
# [11] = target: T5, Glutathione-S-transferase (Schistosoma japonicum, UniProt Q26513); test: biotin-GST/anti-GST TR-FRET signal inhibitors, dose response, artefact control for Vif-APOBEC3G degradation inhibitor project, biochemical (AID 1117362); format: functional
# T5 sequence (Q26513 whole entry): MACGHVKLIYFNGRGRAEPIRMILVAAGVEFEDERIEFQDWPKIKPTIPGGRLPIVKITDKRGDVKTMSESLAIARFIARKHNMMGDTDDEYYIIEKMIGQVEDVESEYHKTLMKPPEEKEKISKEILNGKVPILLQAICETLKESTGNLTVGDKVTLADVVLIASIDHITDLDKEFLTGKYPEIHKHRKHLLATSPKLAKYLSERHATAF
# [12] = target: T6, Mucolipin-3 (Homo sapiens, UniProt Q8TDD5); test: Dose response cell-based high-throughput screening assay for agonists of the transient receptor potential channel ML3 (TRPML3). [Related pubchem assays: 1526, 1424, 1448 ]; format: functional
# T6 sequence (Q8TDD5 whole entry): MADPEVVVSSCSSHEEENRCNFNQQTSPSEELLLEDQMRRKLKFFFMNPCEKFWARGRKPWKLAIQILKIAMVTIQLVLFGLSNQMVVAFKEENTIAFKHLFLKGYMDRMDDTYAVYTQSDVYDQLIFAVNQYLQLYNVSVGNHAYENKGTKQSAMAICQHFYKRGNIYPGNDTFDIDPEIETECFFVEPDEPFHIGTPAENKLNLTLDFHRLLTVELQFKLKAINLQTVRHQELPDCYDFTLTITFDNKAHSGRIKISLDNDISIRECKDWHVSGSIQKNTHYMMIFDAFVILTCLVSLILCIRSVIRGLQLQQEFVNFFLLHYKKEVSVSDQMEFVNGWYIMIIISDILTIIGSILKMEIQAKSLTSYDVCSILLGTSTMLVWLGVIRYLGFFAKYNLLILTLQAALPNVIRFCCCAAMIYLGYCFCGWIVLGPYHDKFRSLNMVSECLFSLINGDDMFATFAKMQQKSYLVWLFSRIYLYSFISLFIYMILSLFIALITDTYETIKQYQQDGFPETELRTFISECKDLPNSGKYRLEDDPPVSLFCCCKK
# [13] = target: Ion channel NompC (Danio rerio, UniProt Q7T1G6); test: Fluorescence counterscreen assay for TRPML3 agonists: dose response cell-based high-throughput screening assay to identify agonists of the transient receptor potential channel N1 (TRPN1). [Related pubchem assays: 1526, 1424, 1448 ]; format: functional
# Ion channel NompC, sequence (Q7T1G6 whole entry): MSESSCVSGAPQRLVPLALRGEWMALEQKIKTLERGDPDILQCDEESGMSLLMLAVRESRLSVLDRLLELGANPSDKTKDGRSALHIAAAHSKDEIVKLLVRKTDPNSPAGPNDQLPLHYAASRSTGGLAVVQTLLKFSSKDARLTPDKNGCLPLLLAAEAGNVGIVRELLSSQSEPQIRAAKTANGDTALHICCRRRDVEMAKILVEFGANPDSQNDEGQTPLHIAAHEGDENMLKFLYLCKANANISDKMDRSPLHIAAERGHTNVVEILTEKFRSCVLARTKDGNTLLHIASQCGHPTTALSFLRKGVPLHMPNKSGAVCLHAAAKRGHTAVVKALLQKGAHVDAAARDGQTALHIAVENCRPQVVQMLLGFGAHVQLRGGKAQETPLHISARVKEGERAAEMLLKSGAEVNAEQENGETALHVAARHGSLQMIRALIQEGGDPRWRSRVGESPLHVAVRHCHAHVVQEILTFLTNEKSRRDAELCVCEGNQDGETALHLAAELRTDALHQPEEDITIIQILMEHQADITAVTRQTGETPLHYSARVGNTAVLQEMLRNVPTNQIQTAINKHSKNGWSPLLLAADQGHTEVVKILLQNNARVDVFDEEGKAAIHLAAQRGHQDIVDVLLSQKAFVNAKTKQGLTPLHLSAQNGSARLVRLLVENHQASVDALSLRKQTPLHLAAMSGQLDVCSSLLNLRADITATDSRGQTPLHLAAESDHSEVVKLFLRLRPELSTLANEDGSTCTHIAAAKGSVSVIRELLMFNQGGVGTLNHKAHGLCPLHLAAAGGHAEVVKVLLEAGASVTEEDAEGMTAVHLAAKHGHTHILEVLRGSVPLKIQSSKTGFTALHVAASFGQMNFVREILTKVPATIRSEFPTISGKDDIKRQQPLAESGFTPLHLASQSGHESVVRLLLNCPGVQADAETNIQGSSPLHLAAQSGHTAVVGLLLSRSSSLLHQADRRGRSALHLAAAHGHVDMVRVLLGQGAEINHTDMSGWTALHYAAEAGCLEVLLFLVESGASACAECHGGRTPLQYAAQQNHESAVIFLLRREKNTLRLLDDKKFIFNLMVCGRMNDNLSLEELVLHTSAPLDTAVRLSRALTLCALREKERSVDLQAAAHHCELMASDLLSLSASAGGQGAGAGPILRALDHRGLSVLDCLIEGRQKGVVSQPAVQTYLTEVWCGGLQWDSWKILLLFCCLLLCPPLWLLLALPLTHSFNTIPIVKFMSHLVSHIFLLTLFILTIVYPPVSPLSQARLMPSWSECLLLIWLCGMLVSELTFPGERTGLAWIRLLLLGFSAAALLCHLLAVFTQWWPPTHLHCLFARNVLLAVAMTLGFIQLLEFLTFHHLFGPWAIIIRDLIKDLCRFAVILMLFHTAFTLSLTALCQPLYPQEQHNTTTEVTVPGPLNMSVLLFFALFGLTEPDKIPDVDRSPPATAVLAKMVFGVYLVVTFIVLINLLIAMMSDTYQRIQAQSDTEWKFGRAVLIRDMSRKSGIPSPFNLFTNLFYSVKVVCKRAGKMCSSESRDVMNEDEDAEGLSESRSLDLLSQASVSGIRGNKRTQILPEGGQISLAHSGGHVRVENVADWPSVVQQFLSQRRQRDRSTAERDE
# Mitogen-activated protein kinase 10, sequence (P53779 whole entry): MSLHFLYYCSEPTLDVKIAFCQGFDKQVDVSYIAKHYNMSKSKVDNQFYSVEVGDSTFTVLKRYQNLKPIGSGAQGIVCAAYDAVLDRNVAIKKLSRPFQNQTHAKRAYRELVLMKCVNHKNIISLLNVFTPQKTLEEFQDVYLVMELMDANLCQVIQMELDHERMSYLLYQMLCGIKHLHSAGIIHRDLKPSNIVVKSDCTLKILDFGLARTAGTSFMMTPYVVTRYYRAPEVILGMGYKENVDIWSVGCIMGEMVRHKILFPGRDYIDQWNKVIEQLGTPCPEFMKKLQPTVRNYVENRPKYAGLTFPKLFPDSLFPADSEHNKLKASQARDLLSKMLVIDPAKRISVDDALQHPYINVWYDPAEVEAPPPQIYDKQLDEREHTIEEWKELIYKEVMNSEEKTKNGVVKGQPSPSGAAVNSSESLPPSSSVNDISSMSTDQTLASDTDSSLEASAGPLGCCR
# Nonstructural protein 1, sequence (Q194T2 whole entry): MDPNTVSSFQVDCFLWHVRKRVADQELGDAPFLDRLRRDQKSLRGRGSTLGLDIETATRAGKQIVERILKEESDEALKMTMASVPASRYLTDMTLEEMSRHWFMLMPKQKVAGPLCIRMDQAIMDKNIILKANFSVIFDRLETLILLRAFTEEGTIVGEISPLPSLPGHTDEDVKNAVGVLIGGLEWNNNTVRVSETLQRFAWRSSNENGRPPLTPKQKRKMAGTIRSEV
# NS3, sequence (A3EZJ3 whole entry): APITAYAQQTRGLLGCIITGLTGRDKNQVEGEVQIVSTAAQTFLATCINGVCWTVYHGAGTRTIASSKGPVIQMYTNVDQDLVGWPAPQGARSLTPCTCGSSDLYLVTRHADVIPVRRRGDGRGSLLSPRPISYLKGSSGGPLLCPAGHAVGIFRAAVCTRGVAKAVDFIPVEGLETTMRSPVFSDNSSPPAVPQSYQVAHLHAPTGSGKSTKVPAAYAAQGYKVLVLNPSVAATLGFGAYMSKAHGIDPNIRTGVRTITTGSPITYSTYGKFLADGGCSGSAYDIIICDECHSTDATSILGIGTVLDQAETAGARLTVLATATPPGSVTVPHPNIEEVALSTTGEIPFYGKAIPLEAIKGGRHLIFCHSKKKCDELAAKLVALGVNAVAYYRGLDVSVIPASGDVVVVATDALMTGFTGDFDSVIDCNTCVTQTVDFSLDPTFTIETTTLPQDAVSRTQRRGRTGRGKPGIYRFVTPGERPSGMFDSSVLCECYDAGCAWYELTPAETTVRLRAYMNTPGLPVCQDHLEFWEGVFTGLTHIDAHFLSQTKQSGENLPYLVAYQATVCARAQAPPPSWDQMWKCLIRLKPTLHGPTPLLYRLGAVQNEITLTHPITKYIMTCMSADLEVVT
smiles,measurement,setting,value
Cc1[nH]c(=O)[nH]c1C(=O)CCCCC(=O)OCC(=O)Nc1ccccn1,IC50,[1],> 93.1 µM (not active)
same,IC50,[2],1.98 µM (active)
same,AC50,[3],1.26 µM (active)
CCCOc1ccc(-c2nc(SCc3ccccc3)[nH]c(=O)c2C#N)cc1OC,IC50,[4],1.72 µM (active)
same,EC50,[5],4.73 µM (active)
same,AC50,[3],> 20 µM (inactive)
CC1CCc2nc(N)c(C#N)c(-c3ccncc3)c2C1 (centres undefined),IC50,[1],> 93.1 µM (not active)
CC[n+]1c(/C=C2\C=C(C)CC(C)(C)C2)sc2ccccc21,EC50,[6],11.7 µM (active)
same,EC50,[7],9.81 µM (active)
same,AC50,[8],> 380 µM (inactive)
same,EC50,[9],27.3 µM (active)
same,CC50,[10],4.22 µM (active)
same,IC50,[11],> 100 µM (active)
COc1ccc(S(=O)(=O)NC2CCCC2)c(Cl)c1Cl,EC50,[12],3.55 µM (active)
same,EC50,[13],> 29.9 µM (not active)
O=S(=O)(c1ccc(Cl)cc1Br)N1CCCCC1,EC50,[12],> 29.9 µM (not active)
same,EC50,[13],> 29.9 µM (not active)
O=C(Nc1nc(-c2ccc3ccccc3c2)cs1)C1CCN(S(=O)(=O)c2cccs2)CC1,EC50,[12],14.2 µM (not active)
same,EC50,[13],> 29.9 µM (not active)

# Source: ChEMBL document CHEMBL1201862, “PubChem BioAssay data set” (2004)
